“Also recorded” adds a separate entry of the source.
Assays:
[1] = tested on: calf thymus DNA; test: Reversible DNA binding by spectrophotometric Scatchard analysis; settings: 20° C., 0.01M HEPES buffer, pH 7.00
[2] = tested on: linearized pSV2gpt DNA; test: DNA crosslinking assay (agarose gel electrophoresis of linearized plasmid); type: biochemical; settings: 2 h at 30° C., TE-80 buffer pH 8
Protocol: The ability of representative compounds of the invention to bind to and cross-link DNA was examined. This was carried out by agarose gel electrophoresis of plasmid DNA using linearized pSV2gpt DNA (Tindall, K. R. and Stankowski, L. F.; Mutation Research, 1989 220 241-245) and the method reported by Valu et al, 1990, op.cit. Briefly, linearized pSV2gpt DNA (1 μL of a 1 mg/mL solution) was incubated with drug in TE-80 buffer (10 mM Tris.HCl, 1 mM EDTA at pH 8), shielded from ambient light, for 2 h at 30° C., then denatured by the addition of […] of 1% sodium dodecyl sulfate and 10 μL of 50 mM methylmercury hydroxide and incubated for a further 30 min at 20° C. in the dark. Renaturation of drug-treated DNA samples was carried out by incubation with 2.5 μL of 2-mercaptoethanol for 1 h. Samples were prepared for electrophoresis by the addition of 0.1 mg/mL bromophenol blue, 0.5 μg/mL ethidium bromide and 5 μL of 40% sucrose. Electrophoresis was carried out at 120V in 89 mM tris/borate buffer at pH 8 containing 2 mM EDTA and 0.5 μg/mL ethidium bromide. DNA was visualized using 302 nm trans-illumination, and was photographed using Polaroid type 55 film and a Wratten 3A filter.
After drug treatment, DNA is denatured to the single stranded form, which runs as a lower band in the gels (see lanes 1 and 2 in FIG. 1). Cross-linking by the drugs is evidenced by the appearance of increasing amounts of renatured, double stranded DNA, as shown by the upper band in the gels, corresponding to the band for untreated DNA seen in lane 1.

[3] = tested on: P388 cells; test: Growth inhibition in vitro, P388 leukaemia; type: cell-based, murine; settings: for IC50: P388 cells, 72 h, MTT, read-out: IC50
Protocol: (§1) Representative examples of compounds of the invention were tested for biological activity against tumors. Compounds 1 to 6 and 14 to 21, prepared as described above, were tested for their ability to inhibit growth in vitro of cells of the wild-type murine leukaemia cell line P388, and the cell line AA8 which is derived from Chinese hamster ovary cells. For each compound, the IC50, ie. the concentration of compound which inhibited cell growth in treated cultures to 50% of that of controls, was determined, using means of three determinations. In addition, a hypersensitivity factor was determined by comparing activity of the compounds against AA8 cells to activity against UV4. The latter cell line is deficient in aspects of the excision repair pathway for removing DNA adducts, and is hypersensitive to DNA-alkylating agents, especially interstrand crosslinking agents. Previous work has shown that the ratio of IC50 s determined in the wild-type AA8 and mutant UV4 lines (the hypersensitivity factor HF) is a determinant of the mode of cell killing by alkylating agents (Palmer, B. D. et al, J. Med. Chem., 1990 33 112-121; Wilson, W. R. et al, J. Med. Chem., 1989 32 31-38). Compounds with HFs of ca. 1 are unlikely to kill cells via DNA alkylation events. Compounds which show high HF values are likely to form bulky adducts or cross-links,with the latter being especially likely for compounds showing the highest HF values (>ca. 25) (Wilson et al, op. cit.).
(§2) Cell lines were maintained in exponential growth phase by subculturing in RPMI 1640 (P338) or Alpha MEM (AA8, UV4) containing 10% fetal calf serum, as previously described (Palmer et al, op.cit.; Baguley, B. C. and Wilson, W. R., Eur. J. Cancer Clin. Oncol., 1987 23 607-613). IC50 values were determined using log-phase cultures in 96-well microculture plates, and were calculated as the nominal drug concentration required to reduce the cell density to 50% of control values, using 8 control cultures on each microplate. For P388 cultures, drug was present throughout the growth period (72 h), and final cell densities were determined using a minor modification of the MTT method of Mossman (Mossman, T., J. Immunol. Methods, 1983 65 55-63). For AA8 and UV4 cultures, drug exposure was terminated after 18 h by washing three times with fresh medium. Cultures were then grown for a further 72 h before determining cell density by staining with methylene blue (Finlay, G. J. et al, Anal. Biochem., 1984 139 272-277).

[4] = tested on: S. typhimurium TA102; test: Bacterial mutagenicity, plate incorporation assay, TA102; settings: mean ± SD
[5] = tested on: S. typhimurium TA98; test: Bacterial mutagenicity, plate incorporation assay, TA98; settings: mean ± SD
[6] = tested on: Saccharomyces cerevisiae strain D5; settings: yeast strain D5, in words
[7] = tested on: P338 murine leukaemia; type: in vivo, mice; settings: for in vivo antitumour activity: P388, single-dose protocol; for % Increase in lifespan: single i.p. dose 24 h after tumour inoculation, at optimal dose (mg/kg: 1 30; 2 30; 3 13.3; 4 3.9; 5 5.9; 6 8.9)
[8] = tested on: AA8 cells; test: Growth inhibition in vitro, AA8; type: cell-based, Chinese hamster; settings: for IC50: AA8 cells, 18 h exposure, then 72 h growth, methylene blue, read-out: IC50
Protocol: as §1, §2

[9] = tested on: S. typhimurium TA100; test: Bacterial mutagenicity, plate incorporation assay, TA100; settings: for reversion colonies, TA100: mean ± SD; for mutagenicity in TA100: statistical analysis
[10] = tested on: calf thymus DNA; test: Rate of alkylation of calf thymus DNA by increase in DNA-bound fluorescence; type: biochemical; set-up: unit not given here
[11] = tested on: AA8 and UV4 cells; test: Hypersensitivity factor (AA8/UV4 IC50 ratio); type: cell-based, Chinese hamster; settings: ratio of IC50s AA8/UV4
Protocol: as §1, §2

[12] = 40 μg/plate, square brackets: toxicity becoming apparent
[13] = 80 μg/plate, square brackets: toxicity becoming apparent
[14] = 120 μg/plate, square brackets: toxicity becoming apparent
[15] = compound 4 versus compounds 2 and 3

SMILES	Site size (Number of nucleotide residues) [1] [nucleotide residues]	Cross-linking [2]	IC50 [3] [µM]	reversion colonies, TA102 ([4]; 4 μg/plate)	reversion colonies, TA102 ([4]; 10 μg/plate)	reversion colonies, TA102 ([4]; 20 μg/plate)	reversion colonies, TA102 [4, 12]	reversion colonies, TA102 [4, 13]	reversion colonies, TA98 ([5]; 4 μg/plate)	reversion colonies, TA98 ([5]; 10 μg/plate)	reversion colonies, TA98 ([5]; 20 μg/plate)	reversion colonies, TA98 ([5]; 40 μg/plate)	aberrant colonies in yeast [6]	mitotic crossing-over [6]	in vivo antitumour activity [7]	Optimal dose ([7]; single i.p. dose) [mg/kg]	% Increase in lifespan [7]	IC50 [8] [µM]	reversion colonies, TA100 ([9]; 4 μg/plate)	reversion colonies, TA100 ([9]; 10 μg/plate)	also measured
CN1CCN(c2ccc3nc(-c4ccc5nc(CCCc6ccc(N(CCCl)CCCl)cc6)[nH]c5c4)[nH]c3c2)CC1 [Compound 5, 2-[2-[3-[4-(N,N-bis(2-chloroethyl)amino)phenyl]propyl]-5-benzimidazolyl]-5-(1-methyl-4-piperazinyl)benzimidazole]	3.0	No	0.02	342 ± 32	392 ± 31	368 ± 32	327 ± 17	480 ± 17	63 ± 2	62 ± 1	71 ± 13	62 ± 3	some aberrant colonies	weak mitotic crossing-over	inactive in vivo at all doses up to the maximum tolerable dose	5.9	not active	1.32	188 ± 15	180 ± 5	reversion colonies, TA102 [4, 14]: 607 ± 28; reversion colonies, TA98 [5, 13]: 63 ± 9; reversion colonies, TA98 [5, 14]: 71 ± 1; reversion colonies, TA100 ([9]; 20 μg/plate): 205 ± 14; reversion colonies, TA100 ([9]; 40 μg/plate): 240 ± 7; reversion colonies, TA100 ([9]; 80 μg/plate): 258 ± 21; mutagenicity in TA100 [9]: could be considered to show a mutagenic effect in TA100; also recorded: mutagenic ability; Rate constant for alkylation [10]: 6.52 × 10^4; Hypersensitivity factor [11]: 46
CN1CCN(c2ccc3nc(-c4ccc5nc(CCc6ccc(N(CCCl)CCCl)cc6)[nH]c5c4)[nH]c3c2)CC1 [Compound 4, 2-[2-[2-[4-(N,N-bis(2-chloroethyl)amino)phenyl]ethyl]-5-benzimidazolyl]-5-(1-methyl-4-piperazinyl)benzimidazole]	2.8	No	0.01	340 ± 26	366 ± 49	429 ± 17	465 ± 41	609 ± 74	71 ± 2	74 ± 10	75 ± 1	65 ± 6	some aberrant colonies	weak mitotic crossing-over	retained significant in vivo activity	3.9	52%	0.33	172 ± 4	231 ± 7	increase in cytotoxicity in P388 [3, 15]: 80 fold; average number of animals in a group of six which were long-term survivors ([7]; single i.p. dose, optimal dose, group of six): 1 animals; increase in cytotoxicity in AA8 [8, 15]: 5 fold; reversion colonies, TA100 ([9]; 20 μg/plate): 264 ± 12; reversion colonies, TA100 ([9]; 40 μg/plate): 237 ± 29; reversion colonies, TA100 ([9]; 80 μg/plate): 207 ± 10; reversion colonies, TA100 [9, 14]: 232 ± 19; mutagenicity in TA100 [9]: could be considered to show a mutagenic effect in TA100; also recorded: mutagenic ability; Rate constant for alkylation [10]: 4.62 × 10^4; Hypersensitivity factor [11]: 47

Reference: US5968933A, “DNA-targeted alkylating agents” (Auckland Division Cancer Society of New Zealand Inc., priority 1994, dated 1999)
